{"source": "patent US10172835B2", "about": "“Anticancer agent composition” (J-Pharma Co., Ltd., priority 2014, dated 2019)", "key": {"caspase 3 [1]": {"tested_on": "caspase 3", "assay": "Western blot of caspase 3 activation and PARP cleavage in primary tPTEN−/− tumor cells (KO#732)", "assay_type": "cell-based, murine", "conditions": "primary KO#732 cells; COMPOUND-JP 5.0, 10.0 μM; PI-103 10.0 μM; rapamycin 10.0 nM; 2.0-18.0 h", "method": "(§1) Cell extracts were prepared using a cell lysis buffer (50 mM HEPES, pH 7.4, 150 mM NaCl, 20 mM EDTA, 100 mM NaF, 10 mM Na3VO4, 0.5% nonyl phenoxypolyethoxylethanol (NP40) supplemented with a cocktail of protease inhibitors. After SDS-PAGE separation and transfer to nitrocellulose immunoblotting was performed using the following antibodies against: Akt (Cell Signaling Technologies, #9272), CHOP (#2895), cleaved caspase 3 (#9664), c-Myc (#9402), eIF2a (#9721), 4EBP1 (#9644), LC3A/B (#12741), PARP (#9542), pJnk (T183/Y185) (#9251), pSer235-236-S6RP (#4856), pSer473-Akt (#9271), pSer65-4EBP1 (#9451) and S6RP (#2217); Bax (Sigma-Aldrich, B8429); PUMA (Abcam, ab54288); Bak (Millipore, 06536); ATF4 (Santa Cruz Biotechnologies, sc200), GADD34 (sc8327), Hsp60 (sc-1722), Hsp90 (sc-13119) and XBP1 (sc-7160); ATF6 (Imgenex, IMG-273)."}, "KO99L cells [2]": {"tested_on": "KO99L cells", "assay": "Combination studies with COMPOUND-JP, WST-1 viability, Chou-Talalay combination index", "assay_type": "cell-based, murine", "conditions": "48 h, suboptimal concentrations, in combination with COMPOUND-JP", "protocol": "Combinations were analyzed by ANOVA followed by Tukey's Multiple comparison test to determine significance between experimental groups. The synergism between drugs was analyzed using the Chou-Talalay method. […] P-value <0.05 was accepted as statistically significant (*:p<0.05; **:p<0.01; ***:p<0.001). Analyses were performed using the GraphPAd Prism 3.0 software."}, "Bcl2 family members": {"tested_on": "Bcl2 family members", "assay": "Western blot of Bcl2 family members, KO99L cells", "assay_type": "cell-based, murine", "method": "as §1"}, "CHOP": {"tested_on": "CHOP", "assay": "Western blot of CHOP protein levels, KO99L cells", "assay_type": "cell-based, murine", "conditions": "50.0 μM", "method": "as §1"}, "KO99L cells [3]": {"tested_on": "KO99L cells", "assay": "Cell death by flow cytometry after DAPI staining, KO99L cells", "assay_type": "cell-based, murine", "conditions": "50.0 μM"}, "caspase 3 [4]": {"tested_on": "caspase 3", "assay": "Western blot of caspase 3 activation and PARP cleavage, KO99L cells", "assay_type": "cell-based, murine", "conditions": "50.0 μM", "method": "as §1"}, "KO99L cells [5]": {"tested_on": "KO99L cells", "assay": "BrdU incorporation Elisa (proliferation) on KO99L cells", "assay_type": "cell-based, murine", "conditions": "50.0 μM, KO99L cells", "method": "Two different assays were employed: i) In a 96-well plate format, cells (4.0±0.1×10^4 per well; 100 μL) were incubated with effectors (48 h, 37° C.; n=4 per experiment) and then WST-1 reagent (10 μL; Roche Diagnostics) added to each well of 96-well plates, incubated, and the formazan production was measured at 490 nm; and ii) cells (2.0±0.1×10^4 per well; 100 μL) were incubated with effectors (48 h, 37° C.; n=4 per experiment) and then bromodeoxyuridine reagent (10 μL/well; Roche Diagnostics) was added to each well and incubated (8 h, 37° C.). The cells were then fixed, denatured and incubated with anti-BrdU-conjugated with peroxidase (POD) antibody (100 μL/well). Colorimetric substrate (TMB: tetramethyl-benzidine; 100 μL/well) was added and BrdU incorporation quantified via optical density measurement (450 nm) which corresponds to DNA synthesis and proliferating cells."}, "[6]": {"tested_on": "human Peripheral Blood Lymphocytes", "assay": "Proliferative response of human PBL", "assay_type": "cell-based", "conditions": "1.0 μM, positive inducer of cell death"}}, "note": "Structures can show the parent of a compound that is named as a salt.", "data": [{"smiles": "Oc1cccc(-c2nc(N3CCOCC3)c3oc4ncccc4c3n2)c1", "note": "[PI103, 3-[4-(4-Morpholinylpyrido[3′,2′:4,5]furo[3,2-d]pyrimidin-2-yl]phenol hydrochloride, reference compound]", "values": [{"measurement": "caspase 3 processing and PARP cleavage (apoptosis)", "setting": "caspase 3 [1]", "result": "efficient cell death inducer"}, {"measurement": "combination effect with COMPOUND-JP on metabolic activity/cell survival (Combination Index)", "setting": "KO99L cells [2]", "result": "less efficient"}]}, {"smiles": "O=C(C=Cc1ccccc1)NC(NC(=S)Nc1cccc2cccnc12)C(Cl)(Cl)Cl", "note": "(centres unmarked) [salubrinal, N-(2,2,2-trichloro-1-(3-(quinolin-8-yl)thioureido)ethyl)cinnamamide, reference compound]", "values": [{"measurement": "COMPOUND-JP induction of Bax, Bak, PUMA and Bim in presence of salubrinal", "setting": "Bcl2 family members", "result": "sensitive to inhibition of CHOP by salubrinal"}, {"measurement": "effect on CHOP induction by COMPOUND-JP (10.0 μM)", "setting": "CHOP", "result": "offset CHOP induction"}, {"measurement": "cell death induced via COMPOUND-JP", "setting": "KO99L cells [3]", "result": "rescue KO99L cells against cell death"}, {"measurement": "caspase 3 cleavage in presence of COMPOUND-JP", "setting": "caspase 3 [4]", "result": "decreased caspase 3 cleavage"}, {"measurement": "cell proliferation (BrdU incorporation or cell counting) in presence of COMPOUND-JP", "setting": "KO99L cells [5]", "result": "restored cell proliferation"}]}, {"smiles": "CN[C@@H]1C[C@H]2O[C@@](C)([C@@H]1OC)n1c3ccccc3c3c4c(c5c6ccccc6n2c5c31)C(=O)NC4", "note": "[staurosporine, reference compound]", "values": [{"measurement": "PBL cell proliferation", "setting": "[6]", "result": "strongly affected cell proliferation"}]}]}
